Measured values taken from patent US5760016A, “Use of mono-3,6-anhydrocyclodextrins for solubilizing a hydrophobic compound and for controlling the purity of an enantiomer and process for the preparation of these cyclodextrins” (priority 1993, dated 1998).
In brackets after ≈: the same amount, converted by molar mass.

What was measured:
[1] = background; cited from earlier work
physchem = conditions: water
[2] = Solubility in water of cyclodextrins
[3] = Hemolysis of human erythrocytes by the cyclodextrin derivative; assay type: cell-based; conditions: erythrocytes; 5 mmole/l, 0.4 ml of human erythrocyte suspension, pH 7.4, 30 min, 37° C.; read-out: hemolysis percentage
human erythrocytes = experiment: as above; assay type: cell-based; conditions: 50 mmole/l
[4] = 25° C., without cyclodextrin; cited from earlier work
[5] = Solubility of prednisolone in water, alone or in the presence of a cyclodextrin; assay type: physicochemical
Method: 10 μmole of mono-3,6-anhydrocyclomaltoheptaose prepared in example 1 are dissolved in 1 ml of pure water (apyrogenic water for injections) and addition takes place of 5 μmole of prednisolone in the form of a 50 mmole/l concentrated solution in acetone. The acetone is eliminated under nitrogen bubbling and the solution lyophilized.
The residual solid, which contains 10 μmole of the cyclodextrin derivative and 5 μmole of prednisolone, is redissolved in the minimum of water at 25° C.

**Q.** For `COC[C@H]1O[C@@H]2O[C@H]3[C@H](O)[C@@H](OC)[C@@H](O[C@H]4[C@H](O)[C@@H](OC)[C@@H](O[C@H]5[C@H](O)[C@@H](OC)[C@@H](O[C@H]6[C@H](O)[C@@H](OC)[C@@H](O[C@H]7[C@H](O)[C@@H](OC)[C@@H](O[C@H]8[C@H](O)[C@@H](OC)[C@@H](O[C@H]1[C@H](O)[C@H]2OC)O[C@@H]8COC)O[C@@H]7COC)O[C@@H]6COC)O[C@@H]5COC)O[C@@H]4COC)O[C@@H]3COC` [2,6-dimethyl-β-cyclodextrin], which “solubilizing properties for hydrophobic organic compounds” value [1] is on record?
**A.** good properties of solubilizing hydrophobic, organic compounds

**Q.** With `OC[C@H]1O[C@@H]2O[C@H]3[C@H](O)[C@@H](O)[C@@H](O[C@H]4[C@H](O)[C@@H](O)[C@@H](O[C@H]5[C@@H]6OC[C@H]5O[C@H](O[C@H]5[C@H](O)[C@@H](O)[C@@H](O[C@H]7[C@H](O)[C@@H](O)[C@@H](O[C@H]8[C@H](O)[C@@H](O)[C@@H](O[C@H]1[C@H](O)[C@H]2O)O[C@@H]8CO)O[C@@H]7CO)O[C@@H]5CO)[C@@H]6O)O[C@@H]4CO)O[C@@H]3CO` [mono-3,6-anhydrocyclomaltoheptaose] as the compound, how does the solubility (physchem) read?
**A.** 520 mg/mL (≈ 466 mM)

**Q.** And the “solubility in water relative to .chi. and γ-cyclodextrins” value ([2]; ratio to .chi. and γ-cyclodextrins)?
**A.** at least twice

**Q.** And the “solubility in water relative to the original cyclodextrin” value ([2]; ratio to original cyclodextrin (18 g/l), 25° C.)?
**A.** ~30 times

**Q.** And the hemolysis at 0.5 h, 5000 µM [3]?
**A.** 0%

**Q.** And the “hemolytic properties at much higher concentrations” value (human erythrocytes)?
**A.** no hemolysis detectable

**Q.** Which results are given for `C[C@]12C=CC(=O)C=C1CC[C@@H]1[C@@H]2[C@@H](O)C[C@@]2(C)[C@H]1CC[C@]2(O)C(=O)CO` [prednisolone]?
**A.** solubility in water of prednisolone [4]: 0.25 mg/mL; solubility ([5]; 25° C., in the presence of mono-3,6-anhydrocyclomaltoheptaose at 200 mmole/l, read-out: maximum prednisolone solubility in water): 100 mM; solubility ([5]; prednisolone solubility in the presence of β-cyclodextrin, same conditions, with β-cyclodextrin): 9 mM

**Q.** For `OC[C@H]1O[C@@H]2O[C@H]3[C@H](O)[C@@H](O)[C@@H](O[C@H]4[C@H](O)[C@@H](O)[C@@H](O[C@H]5[C@H](O)[C@@H](O)[C@@H](O[C@H]6[C@H](O)[C@@H](O)[C@@H](O[C@H]7[C@H](O)[C@@H](O)[C@@H](O[C@H]8[C@H](O)[C@@H](O)[C@@H](O[C@H]1[C@H](O)[C@H]2O)O[C@@H]8CO)O[C@@H]7CO)O[C@@H]6CO)O[C@@H]5CO)O[C@@H]4CO)O[C@@H]3CO` [β-cyclodextrin, cyclomaltoheptaose], which hemolysis at 0.5 h, 5000 µM [3] is on record?
**A.** 50%
